# In publication PMC9078697, “Discovery and preliminary SAR of 14-aryloxy-andrographolide derivatives as antibacterial agents with immunosuppressant activity” (RSC Advances, 2018):
# Assays:
# Type in all cases: cell-based
# S. aureus = assay: Bacteriostatic screening (growth, OD630) against S. aureus; settings: for inhibition rate (%) SA: at 250 μM of the tested compound; for inhibition rate SA (symbol /): at 250 μM of tested compound
# Procedure: (§1) The strategy in this study was to submit these synthesized compounds to a preliminary screening test against E. coli, S. aureus and E. faecalis (ciprofloxacin was used as a reference compound; see Table 1). […] The tested compound or ciprofloxacin (positive drug) was dissolved in DMSO and diluted with LB liquid medium into a stock solution containing 20% DMSO before use; the stock solution of the carrier was 20% DMSO in LB liquid medium. All the experiments, including blank controls, were performed in triplicate. Bacteriostatic screening was performed by applying a modified protocol of the National Committee on Clinical Laboratory Standards (NCCLS).[29] Briefly, E. coli, S. aureus and E. faecalis cells (American Type Culture Collection, ATCC) were grown in LB plate medium for one passage, then seeded in LB liquid medium and cultured at 37 °C for 12 h. After being diluted 1000 times, 190 μL diluted cells were aliquoted to 96-well plates; then, 10 μL stock solution of carrier or a gradient amount of the tested compound or the positive compound, ciprofloxacin, were added; the final concentration of DMSO was 1% in all wells. The blank controls contained 1% DMSO and LB medium but no bacterial cells.
# E. coli = assay: Bacteriostatic screening (growth, OD630) against E. coli; settings: for inhibition rate EC (symbol /): at 250 μM of tested compound; for inhibition rate (%) EC: at 250 μM of the tested compound
# Procedure: as §1
# E. faecalis = assay: Bacteriostatic screening (growth, OD630) against E. faecalis; settings: for IC50: 24 h, IC50 generated when inhibition at 250 μM was higher than 80%; for inhibition rate (%) EF: at 250 μM of the tested compound
# Procedure: as §1
IC50 (E. faecalis),SMILES,inhibition rate (%) SA (S. aureus; 250 µM),inhibition rate EC (symbol /) (E. coli),inhibition rate (%) EF (E. faecalis),also measured
51.2 ± 11.6 µM,"C=C1CCC2C3(C)COC(C)(C)OC3CCC2(C)C1CC=C1C(=O)OCC1Oc1ccc([N+](=O)[O-])cc1C(=O)OC (stereo not drawn) [5a1, (14α)-(2′-Carboxymethyl ester-4′-nitro)phenoxy-3,19-acetonylidene andrographolide]",(14) %,/ (“/”represents no inhibition or lower than 10% inhibition rate at 250 μM of tested compound),,
,"C=C1CCC2C3(C)COC(C)(C)OC3CCC2(C)C1CC=C1C(=O)OCC1Oc1ccc([N+](=O)[O-])cc1OC (stereo not drawn) [5a3, (14α)-(2′-Methoxy-4′-nitro)phenoxy-3,19-acetonylidene andrographolide]",(18) %,,,inhibition rate (%) EC (E. coli): (21) %; inhibition rate (%) EF (E. faecalis; 250 µM): (60) %
,"C=C1CCC2C3(C)COC(C)(C)OC3CCC2(C)C1CC=C1C(=O)OCC1Oc1ccc([N+](=O)[O-])c(F)c1 (stereo not drawn) [5a4, (14α)-(3′-Fluoro-4′-nitro)phenoxy-3,19-acetonylidene andrographolide]",,/ (“/”represents no inhibition or lower than 10% inhibition rate at 250 μM of tested compound),(46) %,inhibition rate SA (symbol /) (S. aureus): / (“/”represents no inhibition or lower than 10% inhibition rate at 250 μM of tested compound)
,"C=C1CCC2C3(C)COC(C)(C)OC3CCC2(C)C1CC=C1C(=O)OCC1Oc1ccc([N+](=O)[O-])c(OC)c1 (stereo not drawn) [5a5, (14α)-(3′-Methoxy-4′-nitro)phenoxy-3,19-acetonylidene andrographolide]",(10) %,,,inhibition rate (%) EC (E. coli; 250 µM): (12) %; inhibition rate (%) EF (E. faecalis; 250 µM): (73) %
,"C=C1CCC2C3(C)COC(C)(C)OC3CCC2(C)C1CC=C1C(=O)OCC1Oc1ccccc1C(=O)OCC (stereo not drawn) [5a8, (14α)-(2′-Carboxyethyl ester)phenoxy-3,19-acetonylidene andrographolide]",,,(33) %,inhibition rate (%) SA (S. aureus): (20) %; inhibition rate (%) EC (E. coli): (32) %
,"C=C1CCC2C3(C)COC(C)(C)OC3CCC2(C)C1CC=C1C(=O)OCC1Oc1ccc(C(=O)OCC)cc1 (stereo not drawn) [5a9, (14α)-(4′-Carboxyethyl ester)phenoxy-3,19-acetonylidene andrographolide]",,/ (“/”represents no inhibition or lower than 10% inhibition rate at 250 μM of tested compound),(45) %,inhibition rate (%) SA (S. aureus): (10) %
,"C=C1CCC2C3(C)COC(C)(C)OC3CCC2(C)C1CC=C1C(=O)OCC1Oc1ccccc1OC (stereo not drawn) [5a12, (14α)-(2′-Methoxy)phenoxy-3,19-acetonylidene andrographolide]",,/ (“/”represents no inhibition or lower than 10% inhibition rate at 250 μM of tested compound),,inhibition rate SA (symbol /) (S. aureus): / (“/”represents no inhibition or lower than 10% inhibition rate at 250 μM of tested compound); inhibition rate (%) EF (E. faecalis; 250 µM): (49) %
25.5 ± 1.5 µM,"C=C1CCC2C3(C)COC(C)(C)OC3CCC2(C)C1CC=C1C(=O)OCC1Oc1cccnc1[N+](=O)[O-] (stereo not drawn) [5a15, (14α)-(2′-Nitro-pyridinyl-3′-oxy)-3,19-acetonylidene andrographolide]",(11) %,,,inhibition rate (%) EC (E. coli): (13) %
16.9 ± 5.9 µM,"C=C1CCC2C3(C)COC(C)(C)OC3CCC2(C)C1CC=C1C(=O)OCC1Oc1ccnc2ccccc12 (stereo not drawn) [5a16, (14α)-(Quinolyl-4′-oxy)-3,19-acetonylidene andrographolide]",,/ (“/”represents no inhibition or lower than 10% inhibition rate at 250 μM of tested compound),,inhibition rate (%) SA (S. aureus): (14) %
,"C=C1CCC2C3(C)COC(C)(C)OC3CCC2(C)C1CC=C1C(=O)OCC1Oc1ccc([N+](=O)[O-])cc1C(=O)OC (stereo not drawn) [5b1, (14β)-(2′-Carboxymethyl ester-4′-nitro)phenoxy-3,19-acetonylidene andrographolide]",(20) %,,(56) %,inhibition rate (%) EC (E. coli): (22) %
,"C=C1CCC2C3(C)COC(C)(C)OC3CCC2(C)C1CC=C1C(=O)OCC1Oc1ccc([N+](=O)[O-])cc1F (stereo not drawn) [5b2, (14β)-(2′-Fluoro-4′-nitro)phenoxy-3,19-acetonylidene andrographolide]",,,(56) %,inhibition rate (%) SA (S. aureus): (26) %; inhibition rate (%) EC (E. coli): (11) %
,"C=C1CCC2C3(C)COC(C)(C)OC3CCC2(C)C1CC=C1C(=O)OCC1Oc1ccc([N+](=O)[O-])cc1OC (stereo not drawn) [5b3, (14β)-(2′-Methoxy-4′-nitro)phenoxy-3,19-acetonylidene andrographolide]",(16) %,/ (“/”represents no inhibition or lower than 10% inhibition rate at 250 μM of tested compound),,inhibition rate (%) EF (E. faecalis; 250 µM): (19) %
,"C=C1CCC2C3(C)COC(C)(C)OC3CCC2(C)C1CC=C1C(=O)OCC1Oc1ccc([N+](=O)[O-])c(OC)c1 (stereo not drawn) [5b5, (14β)-(3′-Methoxy-4′-nitro)phenoxy-3,19-acetonylidene andrographolide]",(32) %,,,inhibition rate (%) EC (E. coli; 250 µM): (18) %; inhibition rate (%) EF (E. faecalis; 250 µM): (34) %
,"C=C1CCC2C3(C)COC(C)(C)OC3CCC2(C)C1CC=C1C(=O)OCC1Oc1cccc([N+](=O)[O-])c1 (stereo not drawn) [5b7, (14β)-(3′-Nitro)phenoxy-3,19-acetonylidene andrographolide]",,/ (“/”represents no inhibition or lower than 10% inhibition rate at 250 μM of tested compound),,inhibition rate SA (symbol /) (S. aureus): / (“/”represents no inhibition or lower than 10% inhibition rate at 250 μM of tested compound); inhibition rate EF (symbol /) (E. faecalis; at 250 μM of tested compound): / (“/”represents no inhibition or lower than 10% inhibition rate at 250 μM of tested compound)
,"C=C1CCC2C3(C)COC(C)(C)OC3CCC2(C)C1CC=C1C(=O)OCC1Oc1ccc(OC)cc1 (stereo not drawn) [5b11, (14β)-(4′-Methoxy)phenoxy-3,19-acetonylidene andrographolide]",,/ (“/”represents no inhibition or lower than 10% inhibition rate at 250 μM of tested compound),(39) %,inhibition rate SA (symbol /) (S. aureus): / (“/”represents no inhibition or lower than 10% inhibition rate at 250 μM of tested compound)
,"C=C1CCC2C3(C)COC(C)(C)OC3CCC2(C)C1CC=C1C(=O)OCC1Oc1ccccc1OC (stereo not drawn) [5b12, (14β)-(2′-Methoxy)phenoxy-3,19-acetonylidene andrographolide]",,/ (“/”represents no inhibition or lower than 10% inhibition rate at 250 μM of tested compound),,inhibition rate (%) SA (S. aureus): (24) %; inhibition rate (%) EF (E. faecalis; 250 µM): (52) %
,"C=C1CCC2C3(C)COC(C)(C)OC3CCC2(C)C1CC=C1C(=O)OCC1Oc1cccc(OC)c1 (stereo not drawn) [5b13, (14β)-(3′-Methoxy)phenoxy-3,19-acetonylidene andrographolide]",,/ (“/”represents no inhibition or lower than 10% inhibition rate at 250 μM of tested compound),(17) %,inhibition rate SA (symbol /) (S. aureus): / (“/”represents no inhibition or lower than 10% inhibition rate at 250 μM of tested compound)
,"C=C1CCC2C3(C)COC(C)(C)OC3CCC2(C)C1CC=C1C(=O)OCC1Oc1cccc2ccccc12 (stereo not drawn) [5b14, (14β)-(Naphthyl-1′-oxy)-3,19-acetonylidene andrographolide]",,/ (“/”represents no inhibition or lower than 10% inhibition rate at 250 μM of tested compound),(47) %,inhibition rate SA (symbol /) (S. aureus): / (“/”represents no inhibition or lower than 10% inhibition rate at 250 μM of tested compound)
38.4 ± 3.4 µM,"C=C1CCC2C3(C)COC(C)(C)OC3CCC2(C)C1CC=C1C(=O)OCC1Oc1cccnc1[N+](=O)[O-] (stereo not drawn) [5b15, (14β)-(2′-Nitro-pyridinyl-3′-oxy)-3,19-acetonylidene andrographolide]",(33) %,/ (“/”represents no inhibition or lower than 10% inhibition rate at 250 μM of tested compound),,
38.7 ± 4.5 µM,"C=C1CCC2C(C)(CO)C(O)CCC2(C)C1CC=C1C(=O)OCC1Oc1ccc([N+](=O)[O-])cc1F (stereo not drawn) [6a2, (14α)-(2′-Fluoro-4′-nitro)phenoxy-andrographolide]",(65) %,,,inhibition rate (%) EC (E. coli; 250 µM): (67) %
113 ± 14.3 µM,"C=C1CCC2C(C)(CO)C(O)CCC2(C)C1CC=C1C(=O)OCC1Oc1ccc([N+](=O)[O-])cc1OC (stereo not drawn) [6a3, (14α)-(2′-Methoxy-4′-nitro)phenoxy-andrographolide]",(17) %,,,inhibition rate (%) EC (E. coli; 250 µM): (31) %
,"C=C1CCC2C(C)(CO)C(O)CCC2(C)C1CC=C1C(=O)OCC1Oc1ccc([N+](=O)[O-])c(F)c1 (stereo not drawn) [6a4, (14α)-(3′-Fluoro-4′-nitro)phenoxy-andrographolide]",,/ (“/”represents no inhibition or lower than 10% inhibition rate at 250 μM of tested compound),(44) %,inhibition rate SA (symbol /) (S. aureus): / (“/”represents no inhibition or lower than 10% inhibition rate at 250 μM of tested compound)
50.4 ± 2.7 µM,"C=C1CCC2C(C)(CO)C(O)CCC2(C)C1CC=C1C(=O)OCC1Oc1ccc([N+](=O)[O-])c(OC)c1 (stereo not drawn) [6a5, (14α)-(3′-methoxy-4′-nitro)phenoxy-andrographolide]",(10) %,,,inhibition rate (%) EC (E. coli; 250 µM): (11) %
83.3 ± 8.3 µM,"C=C1CCC2C(C)(CO)C(O)CCC2(C)C1CC=C1C(=O)OCC1Oc1ccccc1C(=O)OCC (stereo not drawn) [6a8, (14α)-(2′-Carboxyethyl ester)phenoxy-andrographolide]",,,,inhibition rate (%) SA (S. aureus): (17) %; inhibition rate (%) EC (E. coli): (21) %
